Test results taken from patent US20240109893A1, “PREPARATION AND APPLICATION METHOD OF HETEROCYCLIC COMPOUNDS AS KRAS INHIBITOR” (SHANGHAI KECHOW PHARMA, INC., priority 2020, published 2024).

Test system: H358 cells
Assay: Cell activity experiment: activity test of H358 cells (MTT, 5 days)
Assay type: cell-based
Settings: 5 days incubation, absorbance 492 nm
Description: Example: Cell Activity Experiment
1. Cells: H358 purchased from Shanghai EK-Bioscience Biotechnology Co., Ltd.
2. Reagents: RPMI 1640 medium, Tryple, MTT (5 mg/mL), DMSO, and DPBS.
3. Instruments: an incubator at 37° C. and 5% CO2, a UTRAO microplate reader, a biosafety cabinet, a cell counting plate, and an Optec optical microscope.
4. Experimental consumables: 96-well plate Item No.: 3599, and 96-well round-bottomed dispensing plate.
Experimental Steps of Activity Test of H358 Cells:
1. Plating: Cells in the logarithmic growth phase were digested with Tryple and terminated with a fresh medium, and the cells were counted; and the cell concentration was adjusted to 55555 cells/mL with a fresh medium, wherein 90 μL was added to each well, and those on edges were filled with sterile DPBS.
2. The plate was incubated in the incubator at 37° C. and 5% CO2 for 24 h, so that the cells cover the bottom of the well by about 50%.
3. Drug preparation for experimental group: The drug was dissolved in DMSO to prepare a 20 mmol/L stock solution; the stock solution was further diluted with DMSO to 2 mmol/L, which was serially 3-fold diluted to form an […]-concentration gradient, resulting in a 200× serial compound solution; 10 μL of the serial compound solution was taken and added to 190 μLμL of RPMI1640 medium to obtain a 10× serial compound solution; and 10 μL of the 10× compound solution was taken and added to 90 μL 96-well cell culture plate, with three replicates per grade. The concentration gradient of the compound in the 96-well cell culture plate was […], 1.524158 nM, 4.572474 nM, 13.717420 nM, 41.152260 nM, 123.456800 nM, 370.370400 nM, 1111.111000 nM, 3333.333000 nM, and 10000.000000 nM, with 100 μL per well, and the final concentration of DMSO was 0.5%.
The control group contained the same volume of solvent as the experimental group and was diluted with a complete medium, with 100 μL per well.
4. Incubation was carried out for 5 days in an incubator with 5% CO2 at 37° C.
5. After 5 days, 10 μL of an MTT solution (5 mg/mL) was added to each well, and the culture was continued for 4 h.
6. The culture was terminated, and the culture solution was carefully sucked out of the well.
7. 150 μL of dimethyl sulfoxide (DMSO) was added to each of the null wells in the experimental group and the control group; and after shaking at a medium speed for 10 s, the crystal was fully dissolved, and the optical absorbance value thereof was measured at a wavelength of 492 nm.

C=C(F)C(=O)N1CCN(c2nc(OC[C@@]34CCCN3C[C@H](F)C4)nc3c(F)c(-c4cncc5cccc(Cl)c45)ccc23)C[C@@H]1CC#N [Example 165]
IC50 (Homo sapiens, NCI-H358, 120 h): 4 nM

C=CC(=O)N1CCN(c2nc(OCC34CCCN3CCC4)nc3c(F)c(-c4cccc5c4[C@@H]4C[C@@H]4C5)ncc23)C[C@@H]1CC#N [Example 65]
IC50 (Homo sapiens, NCI-H358, 120 h): 3.2 nM

C=CC(=O)N1CCN(c2nc(OC[C@@H]3CCCN3C)nc3c(F)c(-c4cccc5c4C4CC4C5)ncc23)C[C@@H]1CC#N (stereo partly drawn) [Example 52, 2-((2S)-1-acryloyl-4-(8-fluoro-2-(((S)-1-methylpyrrolidin-2-yl)methoxy)-7-(1,1a,6,6a-tetrahydrocyclopropa[a]inden-2-yl)pyridino[4,3-d]pyrimidin-4-yl)piperazin-2-yl)acetonitrile]
IC50 (Homo sapiens, NCI-H358, 120 h): 0.22 nM

C=C(F)C(=O)N1CCN(C2=C(C#N)C(OCC34CCCN3CCC4)=NC3C=C(c4cccc5ccc(F)c(Cl)c45)C=CC23)C[C@@H]1CC#N (stereo partly drawn) [Example 627]
IC50 (Homo sapiens, NCI-H358, 120 h): 120 nM

C=CC(=O)N1CCN(c2nc(OC[C@@H]3CCCN3C)nc3cc(-c4cncc5c4CCCC5)ccc23)C[C@@H]1CC#N [Example 142]
IC50 (Homo sapiens, NCI-H358, 120 h): 20 nM

C=C(F)C(=O)N1CCN(c2nc(OC[C@@H]3CCCN3C)nc3c(F)c(-c4cccc5c4CC4CC54)ccc23)C[C@@H]1CC#N (single isomer, unassigned) [Example 884]
IC50: 1260 nM

C=CC(=O)N1CCN(c2nc(OC[C@@H]3CCCN3C)nc3c(F)c(-c4cccc5c4CCOC5)ncc23)C[C@@H]1CC#N [Example 50, 2-((S)-1-acryloyl-4-(8-fluoro-7-(isochroman-5-yl)-2-(((S)-1-methylpyrrolidin-2-yl)methoxy)pyridino[4,3-d]pyrimidin-4-yl)piperazin-2-yl)acetonitrile]
IC50 (Homo sapiens, NCI-H358, 120 h): 140 nM

C=C(F)C(=O)N1CC[C@@H]2[C@H]1CN2c1nc(OC[C@@H]2C[C@@H](F)CN2C)nc2c(F)c(-c3cncc4c3CCCC4)ncc12 [Example 44]
IC50 (Homo sapiens, NCI-H358, 120 h): 64 nM

C=C(F)C(=O)N1CCN(c2nc(OC[C@@H]3C[C@@H](F)CN3C)nc3c(F)c(-c4cccc5c4CCCC5)ncc23)C[C@@H]1CC#N [Example 6]
IC50 (Homo sapiens, NCI-H358, 120 h): 90 nM

C=CC(=O)N1CCN(c2nc(OCC34CCCN3CCC4)nc3cc(-c4cncc5c4CCCC5)ccc23)C[C@@H]1CC#N [Example 146, (S)-2-(1-acryloyl-4-(2-((tetrahydro-1H-pyrrolizin-7a(5H)-yl)methoxy)-7-(5,6,7,8-tetrahydroisoquinolin-4-yl)quinazolin-4-yl)piperazin-2-yl)acetonitrile]
IC50 (Homo sapiens, NCI-H358, 120 h): 10 nM

C=CC(=O)N1CCN(c2nc(OC[C@@H]3CCCN3C)nc3c(F)c(N4CCCc5cc(F)ccc54)c(Cl)cc23)CC1 [Example 615, (S)-1-(4-(6-chloro-8-fluoro-7-(6 fluoro-3,4-dihydroquinoline-1(2H)-yl)-2-((1-methylpyrrolidin-2-yl)methoxy)quinazolin-4-yl)piperazin-1-yl)prop-2-en-1-one]
IC50 (Homo sapiens, NCI-H358, 120 h): 1010 nM

C=C(F)C(=O)N1CCN(C2=C(C#N)C(OC[C@@H]3C[C@@H](F)CN3C)=NC3C=C(c4cccc5ccc(F)c(Cl)c45)C=CC23)C[C@@H]1CC#N (stereo partly drawn) [Example 626]
IC50 (Homo sapiens, NCI-H358, 120 h): 1500 nM

C=CC(=O)N1CCN(c2nc(OC[C@@H]3CCCN3C)nc3c(F)c(-c4cccc5c4[C@@H]4C[C@@H]4C5)ncc23)C[C@@H]1CC#N [Example 58, 2-((S)-1-acryloyl-4-(8-fluoro-2-(((S)-1-methylpyrrolidin-2-yl)methoxy)-7-((1aR,6aR)-1,1a,6,6a-tetrahydrocyclopropa[a]inden-2-yl)pyridino[4,3-d]pyrimidin-4-yl)piperazin-2-yl)acetonitrile]
IC50 (Homo sapiens, NCI-H358, 120 h): 0.81 nM

C=CC(=O)N1CCN(c2nc(OC[C@@H]3C[C@@H](F)CN3C)nc3c(F)c(-c4cccc5cccc(Cl)c45)ccc23)C[C@@H]1CC#N [Example 361]
IC50 (Homo sapiens, NCI-H358, 120 h): 5 nM

C=C(F)C(=O)N1CCN(c2nc(OCC34CCCN3CCC4)nc3c(F)c(-c4cccc5c4[C@H]4C[C@H]4C5)ncc23)C[C@@H]1CC#N [Example 64, 2-((S)-4-(8-fluoro-2-((tetrahydro-1H-pyrrolizin-7a(5H)-yl)methoxy)-7-((1aS,6aS)-1,1a,6,6a-tetrahydrocyclopropa[a]inden-2-yl)pyridino[4,3-d]pyrimidin-4-yl)-1-(2-fluoroacryloyl)piperazin-2-yl)acetonitrile]
IC50 (Homo sapiens, NCI-H358, 120 h): 10 nM

C=C(F)C(=O)N1CCN(C2=C(C#N)C(OC[C@@]34CCCN3C[C@H](F)C4)=NC3C=C(c4cccc5ccc(F)c(Cl)c45)C=CC23)C[C@@H]1CC#N (stereo partly drawn) [Example 629]
IC50 (Homo sapiens, NCI-H358, 120 h): 120 nM

C=C(F)C(=O)N1CC[C@@H]2[C@H]1CN2c1nc(OCC23CCCN2CCC3)nc2c(F)c(-c3cncc4c3CCCC4)ncc12 [Example 46, 2-fluoro-1-(((1R,5R)-6-(8-fluoro-2-((tetrahydro-1H-pyrrolizin-7a(5H)-yl)methoxy))-7-(5,6,7,8-tetrahydroisoquinolin-4-yl)pyridino[4,3-d]pyrimidin-4-yl)-2,6-diazabicyclo[3.2.0]hept-2-yl)prop-2-en-1-one]
IC50 (Homo sapiens, NCI-H358, 120 h): 30 nM

C=C(F)C(=O)N1CC[C@@H]2[C@H]1CN2c1nc(OC[C@@]23CCCN2C[C@H](F)C3)nc2c(F)c(-c3cccc4c3CCCC4)ncc12 [Example 16]
IC50 (Homo sapiens, NCI-H358, 120 h): 5 nM

C=C(F)C(=O)N1CCN(c2nc(OCC34CCCN3C[C@H](F)C4)nc3cc(-c4cccc5c4CCCC5)ccc23)C[C@@H]1CC#N (stereo partly drawn) [Example 117]
IC50 (Homo sapiens, NCI-H358, 120 h): 30 nM

C=CC(=O)N1CCN(c2nc(OC[C@@H]3CCCN3C)nc3cc(-c4cccc5c4CCCC5)c(Cl)cc23)C[C@@H]1CC#N [Example 75, 2-((S)-1-acryloyl-4-(6-chloro-2-(((S)-1-methylpyrrolidin-2-yl)methoxy)-7-(5,6,7,8-tetrahydronaphthalen-1-yl)quinazolin-4-yl)piperazin-2-yl)acetonitrile]
IC50 (Homo sapiens, NCI-H358, 120 h): 86 nM

C=CC(=O)N1CC[C@@H]2[C@H]1CN2c1nc(OC[C@@H]2CCCN2C)nc2c(F)c(-c3cccc4c3CCCC4)ncc12 [Example 9, 1-((1R,5R)-6-(8-fluoro-2-(((S)-1-methylpyrrolidin-2-yl)methoxy)-7-(5,6,7,8-tetrahydronaphthalen-1-yl)pyridino[4,3-d]pyrimidin-4-yl)-2,6-diazabicyclo[3.2.0]hept-2-yl)prop-2-en-1-one]
IC50 (Homo sapiens, NCI-H358, 120 h): 10 nM

C=C(F)C(=O)N1CCN(c2nc(OC[C@@H]3CCCN3C)nc3c(F)c(-c4cccc5c4CCCC5)ncc23)C[C@@H]1CC#N [Example 4, 2-((S)-4-(8-fluoro-2-(((S)-1-methylpyrrolidin-2-yl)methoxy)-7-(5,6,7,8-tetrahydronaphthalen-1-yl)pyridino[4,3-d]pyrimidin-4-yl)-1-(2-fluoroacryloyl)piperazin-2-yl)acetonitrile]
IC50 (Homo sapiens, NCI-H358, 120 h): 70 nM

C=CC(=O)N1CCN(c2nc(OC[C@@H]3CCCN3C)nc3c(F)c(-c4cccc5c4SCCC5)ncc23)C[C@@H]1CC#N [Example 49, 2-((S)-1-acryloyl-4-(8-fluoro-2-(((S)-1-methylpyrrolidin-2-yl)methoxy)-7-(thiochroman-8-yl)pyridino[4,3-d]pyrimidin-4-yl)piperazin-2-yl)acetonitrile]
IC50 (Homo sapiens, NCI-H358, 120 h): 57 nM

C=CC(=O)N1CCN(c2nc(OC[C@@H]3CCCN3C)nc3cc(-c4cccc5cccc(Cl)c45)c(F)cc23)C[C@@H]1CC#N [Example 394, 2-((S)-1-acryloyl-4-(6-fluoro-7-(8-chloronaphthalen-1-yl)-2-(((S)-1-methylpyrrolidin-2-yl)methoxy)quinazolin-4-yl)piperazin-2-yl)acetonitrile]
IC50 (Homo sapiens, NCI-H358, 120 h): 158 nM
